Laboratory results as given in PubChem BioAssay (NCI).
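Following 48 hours of exposure in 96-well plates, responses at five concentrations were used to interpolate endpoints linearly. TGI: concentration producing complete growth inhibition.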

Columns and labels:
Assay in all cases: DTP human tumour cell line panel, 48 h
OVCAR-4 ovarian = tested on: OVCAR-4 ovarian
KM12 colon = tested on: KM12 colon
OVCAR-5 ovarian = tested on: OVCAR-5 ovarian
SK-MEL-5 melanoma = tested on: SK-MEL-5 melanoma
SF-539 CNS = tested on: SF-539 CNS
NCI-H460 lung = tested on: NCI-H460 lung
SK-MEL-28 melanoma = tested on: SK-MEL-28 melanoma
CCRF-CEM leukemia = tested on: CCRF-CEM leukemia
UO-31 renal = tested on: UO-31 renal
A549 NSCLC = tested on: A549 NSCLC
SF-295 CNS = tested on: SF-295 CNS
SK-MEL-2 melanoma = tested on: SK-MEL-2 melanoma
EKVX NSCLC = tested on: EKVX NSCLC
BT-549 breast = tested on: BT-549 breast
NCI-H226 lung = tested on: NCI-H226 lung
TK-10 renal = tested on: TK-10 renal
HT29 colon = tested on: HT29 colon
CAKI-1 renal = tested on: CAKI-1 renal
OVCAR-3 ovarian = tested on: OVCAR-3 ovarian
A498 renal = tested on: A498 renal
HOP-62 NSCLC = tested on: HOP-62 NSCLC
MDA-N = tested on: MDA-N
RXF 393 renal = tested on: RXF 393 renal
IGROV1 ovarian = tested on: IGROV1 ovarian
HCT-15 colon = tested on: HCT-15 colon
SK-OV-3 ovarian = tested on: SK-OV-3 ovarian
786-0 renal = tested on: 786-0 renal
UACC-257 melanoma = tested on: UACC-257 melanoma
ACHN renal = tested on: ACHN renal
UACC-62 melanoma = tested on: UACC-62 melanoma
NCI/ADR-RES ovarian = tested on: NCI/ADR-RES ovarian
LOX IMVI melanoma = tested on: LOX IMVI melanoma
MDA-MB-231 breast = tested on: MDA-MB-231 breast
COLO 205 colon = tested on: COLO 205 colon
SF-268 CNS = tested on: SF-268 CNS
MCF7 breast = tested on: MCF7 breast
M14 melanoma = tested on: M14 melanoma
SW-620 colon = tested on: SW-620 colon
MOLT-4 leukemia = tested on: MOLT-4 leukemia
U251 CNS = tested on: U251 CNS
HCT-116 colon = tested on: HCT-116 colon
HCC-2998 colon = tested on: HCC-2998 colon
OVCAR-8 ovarian = tested on: OVCAR-8 ovarian
NCI-H23 lung = tested on: NCI-H23 lung
NCI-H522 lung = tested on: NCI-H522 lung
SN12C renal = tested on: SN12C renal
T-47D breast = tested on: T-47D breast
HS 578T breast = tested on: HS 578T breast
SR leukemia = tested on: SR leukemia
RPMI-8226 leukemia = tested on: RPMI-8226 leukemia
MALME-3M melanoma = tested on: MALME-3M melanoma
SNB-19 CNS = tested on: SNB-19 CNS
DU-145 prostate = tested on: DU-145 prostate
PC-3 prostate = tested on: PC-3 prostate
SNB-75 CNS = tested on: SNB-75 CNS
HOP-92 NSCLC = tested on: HOP-92 NSCLC
HL-60(TB) leukemia = tested on: HL-60(TB) leukemia
K-562 leukemia = tested on: K-562 leukemia
MDA-MB-435 = tested on: MDA-MB-435

`CCC/C(Cl)=N\OC(=O)Nc1cccc(C(F)(F)F)c1` gave a TGI (OVCAR-4 ovarian) of 38.5 µM, a TGI (KM12 colon) of 33.3 µM and a TGI (OVCAR-5 ovarian) of 46.1 µM. The TGI (SK-MEL-5 melanoma) was 28.9 µM, the TGI (SF-539 CNS) was 35.1 µM and the TGI (NCI-H460 lung) was 35.8 µM. It also gave a TGI (SK-MEL-28 melanoma) of 37.6 µM, a TGI (CCRF-CEM leukemia) of 5.67 µM and a TGI (UO-31 renal) of 33.9 µM. For the same molecule, the TGI (A549 NSCLC) was 36.1 µM, the TGI (SF-295 CNS) was 19.5 µM and the TGI (SK-MEL-2 melanoma) was 31.4 µM. It also gave a TGI (EKVX NSCLC) of 31.4 µM, a TGI (BT-549 breast) of 24.7 µM and a TGI (NCI-H226 lung) of 37.8 µM. For the same molecule, the TGI (TK-10 renal) was 28.8 µM, the TGI (HT29 colon) was 50.3 µM and the TGI (CAKI-1 renal) was 33.1 µM. It also gave a TGI (OVCAR-3 ovarian) of 40.2 µM, a TGI (A498 renal) of 32 µM and a TGI (HOP-62 NSCLC) of over 100 µM. For the same molecule, the TGI (MDA-N) was 31.9 µM, the TGI (RXF 393 renal) was 33.8 µM and the TGI (IGROV1 ovarian) was 32.4 µM. The TGI (HCT-15 colon) was 18.4 µM, the TGI (SK-OV-3 ovarian) was 18 µM and the TGI (786-0 renal) was 29.5 µM. The TGI (UACC-257 melanoma) was 31.6 µM, the TGI (ACHN renal) was 29.8 µM and the TGI (UACC-62 melanoma) was 55.3 µM. The TGI (NCI/ADR-RES ovarian) was over 59.4 µM, the TGI (LOX IMVI melanoma) was 19.7 µM and the TGI (MDA-MB-231 breast) was 33.8 µM. For the same molecule, the TGI (COLO 205 colon) was 8.51 µM, the TGI (SF-268 CNS) was 67.8 µM and the TGI (MCF7 breast) was 30.1 µM. The TGI (M14 melanoma) was 32.7 µM, the TGI (SW-620 colon) was 8.66 µM and the TGI (MOLT-4 leukemia) was 13.6 µM. It also gave a TGI (U251 CNS) of 34.4 µM, a TGI (HCT-116 colon) of 34.9 µM and a TGI (HCC-2998 colon) of 33.4 µM. For the same molecule, the TGI (OVCAR-8 ovarian) was 32.3 µM, the TGI (NCI-H23 lung) was 41.1 µM and the TGI (NCI-H522 lung) was 3.42 µM. For the same molecule, the TGI (SN12C renal) was 29.7 µM, the TGI (T-47D breast) was 55.3 µM and the TGI (HS 578T breast) was 70.2 µM. It also gave a TGI (SR leukemia) of 5.93 µM, a TGI (RPMI-8226 leukemia) of 25.8 µM and a TGI (MALME-3M melanoma) of 26.4 µM. It also gave a TGI (SNB-19 CNS) of over 100 µM, a TGI (DU-145 prostate) of 17.8 µM and a TGI (PC-3 prostate) of 31.6 µM. For the same molecule, the TGI (SNB-75 CNS) was 24.3 µM.

Work on `Cc1cc(=O)[nH]c2cc(NC(=O)C(CCCN=C(N)N)NC(=O)OCc3ccccc3)ccc12` (configuration not stated) yielded a TGI (OVCAR-4 ovarian) of over 100 µM, a TGI (KM12 colon) of over 100 µM and a TGI (OVCAR-5 ovarian) of over 100 µM. For the same molecule, the TGI (SK-MEL-5 melanoma) was over 100 µM, the TGI (SF-539 CNS) was over 100 µM and the TGI (NCI-H460 lung) was over 100 µM. It also gave a TGI (SK-MEL-28 melanoma) of over 100 µM, a TGI (HOP-92 NSCLC) of over 100 µM and a TGI (CCRF-CEM leukemia) of over 100 µM. The TGI (UO-31 renal) was over 100 µM, the TGI (A549 NSCLC) was over 100 µM and the TGI (SF-295 CNS) was over 100 µM. For the same molecule, the TGI (SK-MEL-2 melanoma) was over 100 µM, the TGI (EKVX NSCLC) was over 100 µM and the TGI (BT-549 breast) was over 100 µM. For the same molecule, the TGI (NCI-H226 lung) was over 100 µM, the TGI (TK-10 renal) was over 100 µM and the TGI (HT29 colon) was over 100 µM. The TGI (CAKI-1 renal) was over 100 µM, the TGI (OVCAR-3 ovarian) was over 100 µM and the TGI (A498 renal) was over 100 µM. It also gave a TGI (HOP-62 NSCLC) of over 100 µM, a TGI (MDA-N) of over 100 µM and a TGI (IGROV1 ovarian) of over 100 µM. For the same molecule, the TGI (HCT-15 colon) was over 100 µM, the TGI (SK-OV-3 ovarian) was 25.6 µM and the TGI (786-0 renal) was over 100 µM. It also gave a TGI (UACC-257 melanoma) of over 100 µM, a TGI (ACHN renal) of over 100 µM and a TGI (UACC-62 melanoma) of over 100 µM. It also gave a TGI (NCI/ADR-RES ovarian) of over 100 µM, a TGI (LOX IMVI melanoma) of over 100 µM and a TGI (MDA-MB-231 breast) of over 100 µM. For the same molecule, the TGI (COLO 205 colon) was over 100 µM, the TGI (SF-268 CNS) was over 100 µM and the TGI (MCF7 breast) was over 100 µM. For the same molecule, the TGI (HL-60(TB) leukemia) was over 100 µM, the TGI (M14 melanoma) was over 100 µM and the TGI (SW-620 colon) was over 100 µM. It also gave a TGI (K-562 leukemia) of over 100 µM, a TGI (MOLT-4 leukemia) of over 100 µM and a TGI (U251 CNS) of over 100 µM. For the same molecule, the TGI (HCT-116 colon) was over 100 µM, the TGI (HCC-2998 colon) was over 100 µM and the TGI (OVCAR-8 ovarian) was over 100 µM. For the same molecule, the TGI (NCI-H23 lung) was over 100 µM, the TGI (NCI-H522 lung) was over 100 µM and the TGI (SN12C renal) was over 100 µM. The TGI (T-47D breast) was over 100 µM, the TGI (HS 578T breast) was over 100 µM and the TGI (SR leukemia) was over 100 µM. It also gave a TGI (MALME-3M melanoma) of over 100 µM, a TGI (SNB-19 CNS) of over 100 µM and a TGI (MDA-MB-435) of over 100 µM. It also gave a TGI (DU-145 prostate) of over 100 µM, a TGI (PC-3 prostate) of over 100 µM and a TGI (SNB-75 CNS) of over 100 µM.

Molecule `COc1ccc(/C=C/C(=N/NC(=O)N/N=C(/C=C/c2ccc(OC)cc2)C(C)(C)CN2CCCCC2)C(C)(C)CN2CCCCC2)cc1` has a TGI (OVCAR-4 ovarian) of 3.96 µM, a TGI (KM12 colon) of 3.27 µM and a TGI (OVCAR-5 ovarian) of 8.16 µM. It also gave a TGI (SK-MEL-5 melanoma) of 3.01 µM, a TGI (SF-539 CNS) of 4.11 µM and a TGI (NCI-H460 lung) of 3.82 µM. For the same molecule, the TGI (SK-MEL-28 melanoma) was 2.92 µM, the TGI (HOP-92 NSCLC) was 3.08 µM and the TGI (CCRF-CEM leukemia) was 3.39 µM. The TGI (UO-31 renal) was 2.95 µM, the TGI (A549 NSCLC) was 3.49 µM and the TGI (SF-295 CNS) was 3.45 µM. It also gave a TGI (SK-MEL-2 melanoma) of 3.1 µM, a TGI (EKVX NSCLC) of over 10 µM and a TGI (BT-549 breast) of 3.58 µM. For the same molecule, the TGI (NCI-H226 lung) was 3.02 µM, the TGI (TK-10 renal) was 3.67 µM and the TGI (HT29 colon) was 3.11 µM. For the same molecule, the TGI (CAKI-1 renal) was 4.33 µM, the TGI (OVCAR-3 ovarian) was 3.81 µM and the TGI (A498 renal) was 3.73 µM. The TGI (HOP-62 NSCLC) was 3.93 µM, the TGI (MDA-N) was 3.06 µM and the TGI (RXF 393 renal) was 2.72 µM. It also gave a TGI (IGROV1 ovarian) of 5.77 µM, a TGI (HCT-15 colon) of 7.06 µM and a TGI (SK-OV-3 ovarian) of 3.49 µM. The TGI (786-0 renal) was 3.15 µM, the TGI (UACC-257 melanoma) was 3.31 µM and the TGI (ACHN renal) was 3.19 µM. For the same molecule, the TGI (NCI/ADR-RES ovarian) was 4.33 µM, the TGI (LOX IMVI melanoma) was 2.82 µM and the TGI (COLO 205 colon) was 3.1 µM. The TGI (MCF7 breast) was 6.26 µM, the TGI (HL-60(TB) leukemia) was 3.22 µM and the TGI (M14 melanoma) was 3.12 µM. It also gave a TGI (SW-620 colon) of 4.48 µM, a TGI (K-562 leukemia) of 1.89 µM and a TGI (MOLT-4 leukemia) of 4.18 µM. It also gave a TGI (U251 CNS) of 3.31 µM, a TGI (HCT-116 colon) of 2.6 µM and a TGI (HCC-2998 colon) of 3.42 µM. It also gave a TGI (OVCAR-8 ovarian) of 3.4 µM, a TGI (NCI-H23 lung) of over 10 µM and a TGI (NCI-H522 lung) of 3.59 µM. The TGI (SN12C renal) was 5.83 µM, the TGI (T-47D breast) was 4.1 µM and the TGI (HS 578T breast) was 4.28 µM. The TGI (SR leukemia) was 0.679 µM, the TGI (RPMI-8226 leukemia) was 4.23 µM and the TGI (MALME-3M melanoma) was 3.42 µM. The TGI (SNB-19 CNS) was 6.4 µM, the TGI (DU-145 prostate) was over 10 µM and the TGI (PC-3 prostate) was 6.62 µM. For the same molecule, the TGI (SNB-75 CNS) was 2.89 µM.
